According to PubChem BioAssay AID1259408 (Genetic Toxicology Data Bank (GENE-TOX), 2018):
Calls of active or inactive are those of the source. The rule behind the calls is not given here.

Test system: GENE-TOX genotoxicity assays, various organisms and cells
Assay: GENE-TOX mutagenicity studies
[1] = Species/Cell Type: Salmonella typhimurium (one or more of the five standard strains: TA98, TA100, TA1535, TA1537, and TA1538), Assay Type: Histidine reverse gene mutation, Ames assay, Assay Code: SAL+*, Activation: With metabolic activation, Evaluation Type: Evaluation A (Pre-1980)
[2] = Species/Cell Type: Human, Assay Type: Sister-chromatid exchange (SCE) in vitro, Assay Code: SC1T, Evaluation Type: Evaluation B (Post-1980)
[3] = Species/Cell Type: Nonhuman, Assay Type: Sister-chromatid exchange (SCE) in vivo, Assay Code: SC3-, Evaluation Type: Evaluation B (Post-1980)

In the case of `NC1CCCCC1`, the mutagenic call (Species/Cell Type: Drosophila melanogaster, Assay Type: Aneuploidy, whole sex chromosome loss, chromosome aberrations, Assay Code: DACT, Evaluation Type: Evaluation A (Pre-1980)) is reported as “no conclusion”, the mutagenic call (Species/Cell Type: Drosophila melanogaster, Assay Type: Sex-linked recessive lethal gene mutation, Assay Code: SRL-, Evaluation Type: Evaluation A (Pre-1980)) is reported as “inactive; negative” and the mutagenic call (Species/Cell Type: Drosophila melanogaster, Sex: Male, Assay Type: Heritable translocation test, chromosome aberrations, Assay Code: DHT-, Evaluation Type: Evaluation A (Pre-1980)) is reported as “inactive; negative”. For the same compound, the mutagenic call (Species/Cell Type: Escherichia coli polA (W3119 vs P3478), Assay Type: Rec-assay, DNA effects (bacterial DNA repair), Assay Code: RE1T, Evaluation Type: Evaluation A (Pre-1980)) was “no conclusion”, the mutagenic call (Species/Cell Type: Human lymphocytes or leukocytes, Assay Type: Chromosome aberrations in vitro, Assay Code: CY7-, Evaluation Type: Evaluation A (Pre-1980)) was “inactive; negative” and the mutagenic call (Species/Cell Type: Mammalian germ cells, Sex: Male, Assay Type: Chromosome aberrations in vivo, Assay Code: CY9+, Evaluation Type: Evaluation A (Pre-1980)) was “active; positive”. For the same compound, the mutagenic call (Species/Cell Type: Nonhuman bone marrow, Assay Type: Chromosome aberrations, in vivo, Assay Code: CY#-, Evaluation Type: Evaluation A (Pre-1980)) was “inactive; negative”, the mutagenic call (Species/Cell Type: Nonhuman, Assay Type: Chromosome aberrations in vitro, Assay Code: CY&+D, Dose Response: With dose response, Evaluation Type: Evaluation A (Pre-1980)) was “active; positive” and the call (Species/Cell Type: Nonhuman, Assay Type: In vivo carcinogenicity studies, Assay Code: CCGT, Evaluation Type: Evaluation A (Pre-1980)) was “no conclusion”. For the same compound, the mutagenic call (Species/Cell Type: Rat, Sex: Male, Assay Type: Sperm morphology, Assay Code: SPA+, Evaluation Type: Evaluation A (Pre-1980)) was “active; positive”, the mutagenic call (Species/Cell Type: Rodents, Sex: Male, Assay Type: Dominant lethal test, Assay Code: DLT-, Evaluation Type: Evaluation A (Pre-1980)) was “inactive; negative” and the mutagenic call (Species/Cell Type: Rodents, Sex: Male, Assay Type: Dominant lethal test, Assay Code: DLTT, Evaluation Type: Evaluation A (Pre-1980)) was “no conclusion”. The mutagenic call (Species/Cell Type: Salmonella typhimurium, Serratia marcesens, Assay Type: Forward and reverse gene mutation, host-mediated assay, Assay Code: HM2T, Evaluation Type: Evaluation A (Pre-1980)) was “no conclusion” and the mutagenic call (Species/Cell Type: Syrian hamster embryo (SA7/SHE) cells, Assay Type: Cell transformation, viral enhanced, Assay Code: CT7+, Evaluation Type: Evaluation A (Pre-1980)) was “active; positive”.

`c1ccc2c(c1)Cc1c(c3ccccc3c3ccccc13)C2` was tested, and the mutagenic call [1] was “active; positive”.

For `CCC(Cc1c(I)cc(I)c(N)c1I)C(=O)O` (configuration not stated), the mutagenic call (Species/Cell Type: Human lymphocytes, Assay Type: Sister-chromatid exchange (SCE) in vitro, Assay Code: SCLT, Evaluation Type: Evaluation B (Post-1980)) was “no conclusion” and the mutagenic call [2] was “no conclusion”.

With `Cn1ncc2c(NC3=NCCO3)cccc21` the mutagenic call (Species/Cell Type: Mammalian polychromatic erythrocytes, Assay Type: Micronucleus test, chromosome aberrations, Assay Code: MNTT, Evaluation Type: Evaluation B (Post-1980)) was “no conclusion” and the mutagenic call (Species/Cell Type: Nonhuman, Assay Type: Sister-chromatid exchange (SCE) in vivo, Assay Code: SC3T, Evaluation Type: Evaluation B (Post-1980)) was “no conclusion”.

`CN(C)CCN(Cc1cccs1)c1ccccn1` was tested, and the mutagenic call (Species/Cell Type: Chinese hamster ovary (CHO) cells, Assay Type: Forward gene mutation at the HPRT locus, Assay Code: CHOT, Evaluation Type: Evaluation B (Post-1980)) was “no conclusion”, the mutagenic call (Species/Cell Type: Nonhuman, Assay Type: Sister-chromatid exchange (SCE) in vitro, Assay Code: SC2-, Evaluation Type: Evaluation B (Post-1980)) was “inactive; negative” and the mutagenic call [3] was “inactive; negative”.

With `CC1=CCc2c1cc(C)c1c2ccc2ccccc21` the mutagenic call [1] was “active; positive”.

`CC[C@H](C)[C@H](NC(=O)[C@@H](NC(=O)N[C@@H](Cc1ccccc1)C(=O)O)C1CCN=C(N)N1)C(=O)N[C@H](C=O)Cc1ccccc1` (some centres not stated) (tested in a mixture with another compound) was tested, and the mutagenic call [2] was “no conclusion”.

With `CC/C(=C(/CC)c1ccc(OP(=O)(O)O)cc1)c1ccc(OP(=O)(O)O)cc1` the mutagenic call (Species/Cell Type: Mammalian polychromatic erythrocytes, Assay Type: Micronucleus test, chromosome aberrations, Assay Code: MNTT, Evaluation Type: Evaluation A (Pre-1980)) was “no conclusion”, the mutagenic call (Species/Cell Type: Neurospora crassa, Assay Type: Aneuploidy, chromosome aberrations, Assay Code: NEN-, Evaluation Type: Evaluation A (Pre-1980)) was “inactive; negative” and the mutagenic call [3] was “inactive; negative”. The mutagenic call (Species/Cell Type: Rodents, Sex: Male, Assay Type: Dominant lethal test, Assay Code: DLT+, Evaluation Type: Evaluation A (Pre-1980)) was “active; positive”.

`Cc1ccc2ccccc2n1` was tested, and the mutagenic call [1] was “active; positive”.

With `O=C(NCCCCCCCCNC(=O)C(Cl)Cl)C(Cl)Cl` the mutagenic call (Species/Cell Type: Human, Sex: Male, Assay Type: Sperm morphology, Assay Code: SPH+, Evaluation Type: Evaluation A (Pre-1980)) was “active; positive”.

`O=NN(CCCl)C(=O)NCCCCNC(=O)N(CCCl)N=O` was tested, and the mutagenic call (Species/Cell Type: Drosophila melanogaster, Assay Type: Sex-linked recessive lethal gene mutation, Assay Code: SRL+, Evaluation Type: Evaluation A (Pre-1980)) was “active; positive” and the mutagenic call (Species/Cell Type: Saccharomyces cerevisiae, Assay Type: Mitotic recombination or gene conversion, Assay Code: YEC+, Evaluation Type: Evaluation A (Pre-1980)) was “active; positive”.
